The source of these data is ChEMBL document CHEMBL6114949, “Synthesis and physiological effects of new 4-aminophenol derivatives as paracetamol analogues” (Bioorg Med Chem Lett, 2025).

A word on the ΔTm: it is the shift of the melting midpoint relative to a reference. As usually defined, the inhibition in vivo is the share of the control response that was lost under treatment.

The test system of series [1] is Rattus norvegicus. Nature of the series: Antipyretic activity against LPS-induced polyphasic febrile response in rats assessed as change in core body temperature at 80 mg/kg, po treated 40 mins prior to LPS addition and measured after 10 mins during phase 1 (reference value: 0.85 deg C). Format: functional, organism-based. The following applies: time 50.0 min.
Series [2] concerns Rattus norvegicus. Nature of the series: Antinociceptive activity in zymosan-induced rat model of thermal nociceptive hypersensitivity assessed as nociceptive response inhibition at 80 mg/kg, ig administered once daily for 7 days and measured 1 hr post-zymosan challenge on day 7 by hot-plate test (reference value: -42.4%). The class given is functional. The following applies: po, 168 h, time 7 day.

For series [3], the system named is Rattus norvegicus. Nature of the series: Antipyretic activity against LPS-induced polyphasic febrile response in rats assessed as return of body temperature to background value at 80 mg/kg, po treated 40 mins prior to LPS addition and measured after 245 mins. The class given is functional, organism-based. As to conditions: time 285.0 min.
Series [4] deals with Rattus norvegicus. Put plainly: Antinociceptive activity in zymosan-induced rat arthritis model assessed as nociceptive response inhibition at 80 mg/kg, ig administered once daily for 7 days and measured 1 hr post-zymosan challenge on day 7 by Randall-Selitto test (reference value: -34.6%). As to conditions: po, 168 h, time 7 day. The class given is functional.
A short description of series [5]: Hepatotoxicity in zymosan-induced rat arthritis model assessed as change in hepatocyte nucleus size at 150 mg/kg, ig administered once daily for 7 days by hematoxylin-eosin staining based histological analysis. The class given is toxicity, organism-based, Liver. The following applies: in vivo, po, 168 h, time 7 day.
Series [6] can be described thus: Hepatotoxicity in zymosan-induced rat arthritis model assessed as effect on beam structure of liver at 150 mg/kg, ig administered once daily for 7 days by hematoxylin-eosin staining based histological analysis. Format: toxicity, organism-based. The following applies: in vivo, po, 168 h, time 7 day.
A short description of series [7]: Hepatotoxicity in zymosan-induced rat arthritis model assessed as disruption of hepatocyte membrane at 150 mg/kg, ig administered once daily for 7 days by hematoxylin-eosin staining based histological analysis. Format: toxicity, organism-based, Liver. As to conditions: in vivo, po, 168 h, time 7 day.
Series [8] concerns Rattus norvegicus. Nature of the series: Antinociceptive activity in zymosan-induced rat arthritis model assessed as nociceptive response inhibition at 150 mg/kg, ig administered once daily for 7 days and measured 1 hr post-zymosan challenge on day 7 by Randall-Selitto test (reference value: -34.6%). As to conditions: po, 168 h, time 7 day. The class given is functional.
The nature of series [9]: Hepatotoxicity in zymosan-induced rat arthritis model assessed as change in shape of liver portal tracts at 150 mg/kg, ig administered once daily for 7 days by hematoxylin-eosin staining based histological analysis. Format: toxicity, organism-based. The following applies: in vivo, po, 168 h, time 7 day.
Series [10] concerns Rattus norvegicus. Nature of the series: Antipyretic activity against LPS-induced polyphasic febrile response in rats assessed as change in core body temperature at 150 mg/kg, po treated 40 mins prior to LPS addition and measured after 160 mins during phase 1 (reference value: 0.85 deg C). The following applies: time 200 min, 3.333 h. The class given is functional.
Series [11] in a line: Hepatotoxicity in zymosan-induced rat arthritis model assessed as appearance of vacuoles in hepatocyte cytoplasm at 150 mg/kg, ig administered once daily for 7 days by hematoxylin-eosin staining based histological analysis. Format: toxicity, organism-based, Liver. The following applies: in vivo, po, 168 h, time 7 day.
Series [12] is described as follows: Hepatotoxicity in zymosan-induced rat arthritis model assessed as change in shape of liver central veins at 150 mg/kg, ig administered once daily for 7 days by hematoxylin-eosin staining based histological analysis. Format: toxicity, organism-based. The following applies: in vivo, po, 168 h, time 7 day.
The test system of series [13] is Rattus norvegicus. Put plainly: Antipyretic activity against LPS-induced polyphasic febrile response in rats assessed as suppression of rise in core body temperature at 150 mg/kg, po treated 40 mins prior to LPS addition and measured after 160 mins relative to control. The class given is functional. As to conditions: time 200 min, 3.333 h.
Series [14] is described as follows: Hepatotoxicity in zymosan-induced rat arthritis model assessed as change in hepatocyte cytoplasmic appearance at 150 mg/kg, ig administered once daily for 7 days by hematoxylin-eosin staining based histological analysis. Format: toxicity, organism-based, Liver. As to conditions: in vivo, po, 168 h, time 7 day.
Series [15] relates to Rattus norvegicus. Nature of the series: Antinociceptive activity in zymosan-induced rat model of thermal nociceptive hypersensitivity assessed as nociceptive response inhibition at 150 mg/kg, ig administered once daily for 7 days and measured 1 hr post-zymosan challenge on day 7 by hot-plate test (reference value: -42.4%). The class given is functional. The following applies: po, 168 h, time 7 day. (In hot-plate and tail-flick tests a longer latency is read as antinociception.)

A short description of series [16]: Hepatotoxicity in zymosan-induced rat arthritis model assessed as change in hepatocyte karyoplasm at 150 mg/kg, ig administered once daily for 7 days by hematoxylin-eosin staining based histological analysis. As to conditions: in vivo, po, 168 h, time 7 day. Format: toxicity, organism-based, Liver.
A short description of series [17]: Hepatotoxicity in zymosan-induced rat arthritis model assessed as effect on sinusoids arrangement at 150 mg/kg, ig administered once daily for 7 days by hematoxylin-eosin staining based histological analysis. Format: toxicity, organism-based, Liver. As to conditions: in vivo, po, 168 h, time 7 day.
The nature of series [18]: Hepatotoxicity in zymosan-induced rat arthritis model assessed as effect on sinusoids elongation at 150 mg/kg, ig administered once daily for 7 days by hematoxylin-eosin staining based histological analysis. The class given is toxicity, organism-based, Liver. The following applies: in vivo, po, 168 h, time 7 day.
Series [19] in a line: Hepatotoxicity in zymosan-induced rat arthritis model assessed as change in hepatocyte shape at 150 mg/kg, ig administered once daily for 7 days by hematoxylin-eosin staining based histological analysis. Format: toxicity, organism-based, Liver. As to conditions: in vivo, po, 168 h, time 7 day.
For series [20], the system named is Rattus norvegicus. Put plainly: Antipyretic activity against LPS-induced polyphasic febrile response in rats assessed as return of body temperature to background value at 150 mg/kg, po treated 40 mins prior to LPS addition and measured after 235 mins. The class given is functional, organism-based. As to conditions: time 275.0 min.
Series [21] in a line: Hepatotoxicity in zymosan-induced rat arthritis model assessed as effect on general architecture of liver at 150 mg/kg, ig administered once daily for 7 days by hematoxylin-eosin staining based histological analysis. As to conditions: in vivo, po, 168 h, time 7 day. The class given is toxicity, organism-based.

Activity calls are given as the source filed them. The calls are words filed in the database; no cut-off is given here.

For the compound `CC(=O)Nc1ccc(O)cc1` [ACETAMINOPHEN], the ΔTm in the series with Rattus norvegicus [1] worked out at 0.34 °C. The figures for the inhibition in vivo at 80 mg/kg in the series on Rattus norvegicus [2] and in the series with Rattus norvegicus [4] were 53% and 28.5%, respectively. In addition, in the series on Rattus norvegicus [3], the outcome was Active.

For the compound `CCCCCCCC(=O)Nc1ccc(OCC(=O)O)cc1`, the Activity result in series [5], in series [6], in [7], in [9], in series [11] and in [12] was “Non-toxic” in each case. For the same compound, the Activity entry in series [14], in series [16], in [17], in series [18], in series [19] and in series [21] was “Non-toxic” each time. For the same compound, the inhibition in vivo at 150 mg/kg was 21.3% with Rattus norvegicus [8] and 8.5% in the series on Rattus norvegicus [15]. Also, the T with Rattus norvegicus [10] is 0.28 °C. Besides, in the series on Rattus norvegicus [13], the “fold change (FC)” value is 3. Besides, the outcome in the series on Rattus norvegicus [20] was Active.
